From US20240043386A1, “Modulators of the Cystic Fibrosis Transmembrane Conductance Regulator Protein and Methods of Use” (AbbVie Global Enterprises Ltd., priority 2021, published 2024) come the findings set out here.

One assay has as its target T1, F508delCFTR (Homo sapiens, UniProt P13569, DEL508-508).
T1 construct: expressed in transfected cells; host or cells: CFBE41o- human lung-derived epithelial cell line, doxycycline-inducible expression
The assay can be described thus: Cell Surface Expression-Horse Radish Peroxidase (CSE-HRP) assay in CFBE41o-F508delCFTR-HRP cells. It is filed as cell-based. The settings on record: for EC50: CFBE41o-F508delCFTR-HRP cells, 18-24 hours at 33° C., luminescence; for Maximum % activity (without co-corrector): normalized to on-plate positive control corrector (2 μM). The method, then: A cellular assay for measuring the F508delCFTR cell surface expression after correction with test compounds either without or with a co-corrector (2 μM of 3-[(2R,4R)-4-({[1-(2,2-difluoro-1,3-benzodioxol-5-yl)cyclopropyl]carbonyl}amino)-7-methoxy-3,4-dihydro-2H-chromen-2-yl]benzoic acid), was developed in human lung derived epithelial cell line (CFBE4lo-) (Veit G et al, (2012) Mol Biol Cell. 23(21): 4188-4202). The development was achieved by expressing the F508delCFTR mutation along with a horseradish peroxidase (HRP) in the fourth exofacial loop, and then measuring the HRP activity using luminescence readout from these cells, CFBE4lo-F508delCFTR-HRP, that were incubated overnight with the test corrector compounds, either without or with the co-corrector. For this primary assay, the CFBE4lo-F508delCFTR-HRP cells were plated in 384-well plates (Greiner Bio-one; Cat 781080) at 4,000 cells/well along with 0.5 μg/mL doxycycline to induce the F508delCFTR-RP expression and further incubated at 37° C., 5% CO2 for 68-72 hours. The test compounds were then added either without or with a co-corrector at the required concentrations and further incubated for 18-24 hours at 33° C. The highest concentration tested was 20 μM or 30 μM (GI-1 to GIII-36) with an 8-point concentration response curve using a 3-fold dilution in both the test compound without or with the co-corrector. Three replicate plates were run to determine one EC50. All plates contained negative controls (dimethyl sulfoxide, DMSO) and positive control (2 μM or 3 μM (GI-1 to GIII-36) of 3-[(2R,4R)-4-({[1-(2,2-difluoro-1,3-benzodioxol-5-yl)cyclopropyl]carbonyl}amino)-7-methoxy-3,4-dihydro-2H-chromen-2-yl]benzoic acid) as well as on-plate concentration response of the positive control. Post incubation, the plates were washed 5× times with Dulbecco's phosphate buffered saline (DPBS), followed by the addition of the HRP substrate, luminol (50 μL), and measuring the HRP activity using luminescence readout on EnVision® Multilabel Plate Reader (Perkin Elmer; product number 2104-0010). The raw counts from the experiment were analyzed using Accelrys® Assay Explorer v3.3.
Z′ greater than 0.5 was used as passing quality control criteria for the plates. The Z′ is defined as:
1−[3*SDPositive Control+3*SDNegative Control/Absolute (MeanPositive Control−MeanNegative Control)]
The % activity measured at each of the 8 test concentrations of the test compound added either without or with a co-corrector (2 μM or 3 μM (GI-1 to GIII-36) of 3-[(2R,4R)-4-({[1-(2,2-difluoro-1,3-benzodioxol-5-yl)cyclopropyl]carbonyl}amino)-7-methoxy-3,4-dihydro-2H-chromen-2-yl]benzoic acid) was normalized to the on-plate positive control using the following formulae:
% activity (Test compound without co-corrector)=[(test compound without co-corrector response−DMSO response)/(positive control response−DMSO response)]*100
% activity (Test compound with co-corrector)=[(test compound with co-corrector response−DMSO response)/(positive control response−DMSO response)]*100
The maximum % activity achieved for the test compound either without or with a co-corrector at any tested concentration is presented in Table 3 along with the respective EC50's calculated using the following general sigmoidal curve with variable Hill slope equation (described as Model 42 in the Accelrys® Assay Explorer v3.3 software):
General sigmoidal curve with concentration, response, top, bottom, EC50 and Hill slope. This model describes a sigmoidal curve with an adjustable baseline, a. The equation can be used to fit curves where response is either increasing or decreasing with respect to the independent variable, “x”.

The target of another assay is T2, F508del/F508del CFTR (Homo sapiens, UniProt P13569, DEL508-508).
T2 construct: cells isolated from CF patients with the homozygous mutation; endogenous in cells; host or cells: primary human bronchial epithelial (hBE) cells from CF patients homozygous for F508del
The assay can be described thus: Trans-Epithelial Current Clamp (TECC) assay using primary human bronchial epithelial cells. The class given is cell-based. The settings on record: for Emax (% Dual): maximum percent activity relative to positive control (co-corrector 0.15 μM + potentiator 0.45 μM = 100%), primary hBE cells F508del/F508del; for EC50: primary hBE cells homozygous F508del/F508del, test C2 corrector with co-corrector and potentiator, 18-24 hours at 37° C., equivalent CFTR current (IEQ)/AUC. An excerpt: A cell-based assay was developed using the primary human bronchial epithelial cells (hBE cells) with F508del/F508del CFTR and other mutations.
Primary human bronchial epithelial (hBE) cells from CFTR patients with homozygous F508del/F508del mutation were expanded from 1×10^6 to 250×10^6 cells (Neuberger, T et al., 2011, Methods Mol Biol 741:39-54). For this purpose, cells isolated from CF patients with the homozygous mutation, procured from the CF center tissue procurement and cell culture core at the Marsico Lung Institute at UNC (Randell), the Cystic Fibrosis translational research center at McGill University (University), and Rosalind Franklin University Medical School (RFUMS) were seeded onto 24 well Corning (Cat #3378) filter plates that were coated with 3T3 conditioned media and grown at an air-liquid interface for 35 days using an Ultroser® G supplemented differentiation media. All the primary human bronchial epithelial cells were collected in accordance with institutional review board approval protocols. Apical surface mucus was removed 72 hours before the experiment by incubating the apical surface of the cells for 30 minutes with 3 mM dithiothreitol (DTT) prepared in Dulbecco's phosphate buffered saline (DPBS) with Ca^2+ and Mg^2+. This was followed with aspiration of the mucus from the apical surface along with DPBS. The apical surface was re-washed with phosphate buffered saline (PBS) incubated for 30 minutes followed with aspiration. These hBE cells were then incubated with the desired concentrations of the test C2 corrector compounds along with co-corrector, 4-[(2R,4R)-4-({[1-(2,2-difluoro-1,3-benzodioxol-5-yl)cyclopropyl]carbonyl}amino)-7-(difluoromethoxy)-3,4-dihydro-2H-chromen-2-yl]benzoic acid and potentiator, (5-{3-amino-5-[4-(trifluoromethoxy)benzene-1-sulfonyl]pyridin-2-yl}-1,3,4-oxadiazol-2-yl)methanol, for 18-24 hours at 37° C., 5% CO2. The desired concentrations of the correctors and potentiator compounds were prepared from the 10 mM stocks in differentiation media and were always applied on the basolateral side of the epithelial cells. We also used an assay format where a fixed concentration of potentiator was added chronically along with the corrector compounds. This chronic treatment with the potentiator helped eliminate any interaction that might happen with CFTR modulators (correctors and potentiators) and thereby determined the true efficacy of the modulator combinations reflective of clinical relevance.
The assay uses a Transepithelial Current Clamp (TECC) (Vu, C B et al., 2017; J Med Chem 60:458-473) instrument that can measure the functionality of the mutated channel by measuring the equivalent CFTR current (IEQ) generated by the polarized primary epithelial cells. We used a TECC-24 with a 24-channel electrode manifold allowing for the simultaneous measurement of the transepithelial voltage, VT, and transepithelial resistance, RT, under current clamp conditions, from 24 filters using a 24 well Costar filter plate. The design of the filters in the 24 well filter plates was exactly the same as the design of an individual Transwell filter used in the classical Ussing Chamber with a surface area of 0.33 cm^2. Each measured VT values were corrected for the electrode offset potential measured using buffer alone in a separate plate, and each measured RT values were then corrected for the combined solution series and empty filter resistances. The corrected VT and RT values were then used to calculate the equivalent current, IEQ using Ohm's law (IEQ=VT/RT). The area under the curve (AUC) for the time period between the forskolin peak IEQ response and at the time of bumetanide addition was also calculated using a one-third trapezoid method, in addition to calculating the IEQ. The assay was run in a 24-well format and all 24-wells were measured at the same time point giving a higher throughput for this assay. […]

Setting [1] is: with co-corrector (2 μM), read-out: EC50 (with co-corrector).
Setting [2] is: without co-corrector, read-out: EC50 (without co-corrector).

Read-outs that look alike come from different tables or passages of the source.

T2 sequence (P13569 with tags, fused parts or gaps DEL508-508): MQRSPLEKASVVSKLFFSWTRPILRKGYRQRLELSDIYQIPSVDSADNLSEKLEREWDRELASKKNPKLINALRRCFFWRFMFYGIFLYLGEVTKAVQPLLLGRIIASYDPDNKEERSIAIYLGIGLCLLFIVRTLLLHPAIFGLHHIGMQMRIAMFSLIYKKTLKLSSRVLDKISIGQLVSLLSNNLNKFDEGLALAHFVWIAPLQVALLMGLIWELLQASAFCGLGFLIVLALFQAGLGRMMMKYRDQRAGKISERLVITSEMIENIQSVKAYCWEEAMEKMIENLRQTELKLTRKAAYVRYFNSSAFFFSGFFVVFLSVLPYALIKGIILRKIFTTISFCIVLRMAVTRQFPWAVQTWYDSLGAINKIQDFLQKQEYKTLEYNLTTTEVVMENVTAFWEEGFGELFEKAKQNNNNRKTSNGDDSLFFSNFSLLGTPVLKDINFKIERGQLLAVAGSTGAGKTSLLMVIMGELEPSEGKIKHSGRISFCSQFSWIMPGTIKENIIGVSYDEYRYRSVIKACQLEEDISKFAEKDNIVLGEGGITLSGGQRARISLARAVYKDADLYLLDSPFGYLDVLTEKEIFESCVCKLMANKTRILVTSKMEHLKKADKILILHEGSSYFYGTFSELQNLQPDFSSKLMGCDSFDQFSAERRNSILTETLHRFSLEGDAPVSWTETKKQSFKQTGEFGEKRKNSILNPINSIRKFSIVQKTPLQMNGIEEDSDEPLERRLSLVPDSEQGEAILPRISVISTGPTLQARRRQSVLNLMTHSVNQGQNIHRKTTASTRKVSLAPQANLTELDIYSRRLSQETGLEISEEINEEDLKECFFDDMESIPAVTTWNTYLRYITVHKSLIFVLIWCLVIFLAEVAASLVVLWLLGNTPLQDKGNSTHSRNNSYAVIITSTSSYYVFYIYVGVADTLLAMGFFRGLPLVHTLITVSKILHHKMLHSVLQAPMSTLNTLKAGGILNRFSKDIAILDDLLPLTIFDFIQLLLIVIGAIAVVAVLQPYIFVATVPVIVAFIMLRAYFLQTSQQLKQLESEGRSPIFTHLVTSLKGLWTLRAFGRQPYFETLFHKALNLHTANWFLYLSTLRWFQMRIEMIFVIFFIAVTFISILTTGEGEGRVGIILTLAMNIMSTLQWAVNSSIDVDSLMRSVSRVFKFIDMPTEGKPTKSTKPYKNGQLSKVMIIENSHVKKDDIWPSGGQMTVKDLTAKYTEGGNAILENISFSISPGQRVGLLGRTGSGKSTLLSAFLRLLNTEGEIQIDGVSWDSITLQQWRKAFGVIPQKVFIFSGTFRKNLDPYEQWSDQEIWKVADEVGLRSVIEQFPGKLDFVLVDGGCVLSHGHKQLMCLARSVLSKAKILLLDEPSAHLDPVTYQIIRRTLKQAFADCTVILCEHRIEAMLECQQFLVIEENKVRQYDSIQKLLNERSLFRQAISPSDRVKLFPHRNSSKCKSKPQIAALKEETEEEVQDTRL
T1 sequence (P13569 with tags, fused parts or gaps DEL508-508): as above

Turning to `COc1ccc(C)cc1[C@@]1(C(=O)NS(=O)(=O)c2cccc3nc(C)ccc23)C[C@H]1c1ccccc1` (racemic) [Example 1, rac-(1r,2s)-1-(2-methoxy-5-methylphenyl)-N-(2-methylquinoline-5-sulfonyl)-2-phenylcyclopropane-1-carboxamide], the results for the EC50 at F508delCFTR (setting [1]), at F508delCFTR (setting [2]) and at F508del/F508del CFTR were 1430 nM, 2840 nM and 5 nM, respectively. Besides, the “Emax (% Dual)” value at F508del/F508del CFTR came to 389 % Dual.

On to `COc1ccc(C)cc1[C@@]1(C(=O)NS(=O)(=O)c2cccc3nc(C)ccc23)C[C@H]1c1ccc(C)cc1` (racemic) [Example 4, rac-(1r,2s)-1-(2-methoxy-5-methylphenyl)-2-(4-methylphenyl)-N-(2-methylquinoline-5-sulfonyl)cyclopropane-1-carboxamide], for which the EC50 at F508delCFTR (setting [1]) is 421 nM; at F508delCFTR (setting [2]), 489 nM; at F508del/F508del CFTR, 1.5 nM. For the same molecule, the “Maximum % activity (without co-corrector)” value at F508delCFTR (without co-corrector) was 944%. On F508del/F508del CFTR, the “Emax (% Dual)” value is listed as 417 % Dual.

Regarding `COc1ccc(C)cc1C1(C(=O)NS(=O)(=O)c2cccc3nc(C)ccc23)CC1c1ccc(C(F)(F)F)cc1` (racemic) [Example 5, rac-(1r,2s)-1-(2-methoxy-5-methylphenyl)-N-(2-methylquinoline-5-sulfonyl)-2-[4-(trifluoromethyl)phenyl]cyclopropane-1-carboxamide], the results for the EC50 at F508delCFTR (setting [1]), at F508delCFTR (setting [2]) and at F508del/F508del CFTR were 187 nM, 306 nM and 3.5 nM, respectively. In addition, on F508delCFTR (without co-corrector), the “Maximum % activity (without co-corrector)” value was 741%. In addition, the “Emax (% Dual)” value at F508del/F508del CFTR is 253 % Dual.

As to `COc1ccc(C)cc1[C@@]1(C(=O)NS(=O)(=O)c2cccc3nc(C)ccc23)C[C@H]1c1cccc(F)c1` (racemic) [Example 8, rac-(1r,2s)-2-(3-fluorophenyl)-1-(2-methoxy-5-methylphenyl)-N-(2-methylquinoline-5-sulfonyl)cyclopropane-1-carboxamide], the EC50 on F508delCFTR (setting [1]) came to 504 nM; on F508delCFTR (setting [2]), 844 nM; on F508del/F508del CFTR it was 1.4 nM. For the same molecule, the “Emax (% Dual)” value on F508del/F508del CFTR was determined as 429 % Dual.

For the molecule `COc1ccc(C)cc1[C@]1(C(=O)NS(=O)(=O)c2cccc3nc(C)ccc23)C[C@@H]1c1cnc(C(C)C)cn1` (single isomer, unassigned) [Example 64], at F508del/F508del CFTR, the “Emax (% Dual)” value stood at 342 % Dual and the EC50 stood at 33.7 nM.

As for `CCOc1cnc([C@H]2C[C@@]2(C(=O)NS(=O)(=O)c2cccc3nc(C)ccc23)c2cc(C)ccc2OC)cn1` (single isomer, unassigned) [Example 66], at F508del/F508del CFTR, the “Emax (% Dual)” value is 253 % Dual and the 50% effective concentration (EC50) stood at 15.2 nM.

As to `CCOc1ncccc1[C@H]1C[C@@]1(C(=O)NS(=O)(=O)c1cccc2nc(C)ccc12)c1cc(C)ccc1OC` (single isomer, unassigned) [Example 71], at F508del/F508del CFTR, the “Emax (% Dual)” value amounted to 288 % Dual and the EC50 was found to be 11.3 nM.

In the case of `COc1ccc([C@H]2C[C@@]2(C(=O)NS(=O)(=O)c2cccc3nc(C)ccc23)c2cc(C)ccc2OC)c(OC)n1` (single isomer, unassigned) [Example 94], on F508del/F508del CFTR, the “Emax (% Dual)” value worked out at 246 % Dual and the half-maximal effective concentration (EC50) came out at 7 nM.

For the molecule `COc1ccc(C)cc1[C@@]1(C(=O)NS(=O)(=O)c2cccc3nc(C)ccc23)CC1c1ccc(C)nc1` (stereo in doubt) [Example 10, (1R,2S)-1-(2-methoxy-5-methylphenyl)-2-(6-methylpyridin-3-yl)-N-(2-methylquinoline-5-sulfonyl)cyclopropane-1-carboxamide], at F508del/F508del CFTR, the “Emax (% Dual)” value is on record as 194 % Dual and the half-maximal effective concentration (EC50) turned out to be 804 nM.

In the case of `COc1ccc(C)cc1[C@]1(C(=O)NS(=O)(=O)c2cccc3nc(C)ccc23)C[C@@H]1c1cnc(OC)c(C)n1` [Example 83, (1S,2S)-1-(2-methoxy-5-methylphenyl)-2-(5-methoxy-6-methylpyrazin-2-yl)-N-(2-methylquinoline-5-sulfonyl)cyclopropane-1-carboxamide], on F508del/F508del CFTR, the “Emax (% Dual)” value was found to be 246 % Dual and the EC50 amounted to 33.2 nM.

Take `COc1ccc(C)cc1[C@]1(C(=O)NS(=O)(=O)c2cccc3nc(C)ccc23)C[C@@H]1c1cnc(OC)c(OC)c1` [Example 104, (1S,2R)-2-(5,6-dimethoxypyridin-3-yl)-1-(2-methoxy-5-methylphenyl)-N-(2-methylquinoline-5-sulfonyl)cyclopropane-1-carboxamide]: at F508del/F508del CFTR, the “Emax (% Dual)” value came to 350 % Dual and the EC50 came out at 3.8 nM.

A word on the EC50: it is the concentration at which the effect is half-maximal.
